Assay results as given in article PMC9629815, “MK256 is a novel CDK8 inhibitor with potent antitumor activity in AML through downregulation of the STAT pathway” (Oncotarget, 2022).

Columns and labels:
MOLM-14 cells = experiment: Cell viability dose-response matrix of MK256 and venetoclax; format: cell-based; conditions: Homo sapiens, MK256 0.0 nM, 72 hrs, read-out: percentage of cell viability
Text: Our earlier experiments showing the clearly increasing expression of BCL-2 in the MOLM-14 cell line led us to ask if there was any combinational effect between MK256 and a BCL-2 inhibitor in MOLM-14 cells. To address this question, we chose venetoclax (ABT-199), an FDA-approved BCL-2 inhibitor for AML and CLL, for the combination study. We treated MOLM-14 cells with MK256 and venetoclax at a series of concentration combinations, measured cell viability, and reported the data in a dose-response matrix (Figure 8). […] We also investigated the apoptotic effect of the combination treatment in the MOLM-14 cell line (Figure 10B).
Figure 10 (A) Dose-response matrix of percentage of cell viability of 10,000 MOLM-14 cells after 72 hrs treatment of MK256 and venetoclax at various concentration combinations. (B) Annexin V staining of 10,000 MOLM-14 cells after 72 hrs treatment of MK256 and venetoclax(ABT199) at various concentration combinations. Status of cells are labeled in the graph at the upper left corner. (C) Tumor growth of MOLM-14 xenograft model. Groups of control; ABT199 (25 mg/kg); ABT199 (25 mg/kg) + MK256 (10 mg/kg); ABT199 25 mg/kg + MK256 (50 mg/kg) were shown in straight line, dotted line, 3 dashed line and 2 dashed line, respectively. ^*** P < 0.001. (D) Body weight percentage of MOLM-14 tumor model. […]

MOLM-14 xenograft model = experiment: MOLM-14 xenograft efficacy study, combination with venetoclax; format: in vivo, NOD SCID mice; conditions: venetoclax 25 mg/kg alone, oral once a day, 5 days on/2 days off
Experimental: In an efficacy study of the combination of MK256 and venetoclax in the MOLM-14 tumor model, we compared venetoclax 25 mg/kg, venetoclax 25 mg/kg + MK256 10 mg/kg, and venetoclax 25 mg/kg + MK256 50 mg/kg. Compounds were given orally once a day on a 5 days on/2 days off schedule.
Female NOD SCID mice were purchased from Charles River Laboratories (Wilmington, USA) or bred at the animal facilities of the University of California San Francisco. All animal experiments were carried out under protocols approved by the Institutional Animal Care and Use Committee of the University of California San Francisco. For MOLM-14 model, 200 ul of 1 × 10^6 cells combined with matrigel (v/v, 1:1) were injected subcutaneously in the right flank of NODSCID mice. Tumors were allowed to grow for two weeks to reach a tumor volume about 200 mm^3 before mice were randomly grouped. The animals were treated for three weeks on a 5 days on/2 days off schedule by oral gavage with MK256 (dissolved in saline) alone or in combination with Venetoclax (dissolved in 5% DMSO + 50% PEG 300 + 5% Tween 80 + ddH2O). […] In the combination study, MK256 (10 or 50 mg/kg) and was coadministered with Venetoclax (25 mg/kg) once a day. Tumor volume and body weight were monitored once every 3 days. Tumor volume was calculated as L × W^2/2, where L and W were the length and width of the tumor, respectively.

## CC1(C)CCC(CN2CCN(c3ccc(C(=O)NS(=O)(=O)c4ccc(NCC5CCOCC5)c([N+](=O)[O-])c4)c(Oc4cnc5[nH]ccc5c4)c3)CC2)=C(c2ccc(Cl)cc2)C1 [Venetoclax, venetoclax, reference compound]
MOLM-14 cells; Venetoclax 0.2 nM
  viability at 0.0002 µM: 65%
MOLM-14 cells; Venetoclax 1.4 nM
  viability at 0.0014 µM: 45%
MOLM-14 cells; Venetoclax 4.1 nM
  viability at 0.0041 µM: 26%
MOLM-14 cells; Venetoclax 12.3 nM
  viability at 0.0123 µM: 12%
MOLM-14 cells; Venetoclax 37 nM
  viability at 0.037 µM: 8%
MOLM-14 cells; Venetoclax 111.1 nM
  viability at 0.1111 µM: 7%
MOLM-14 cells; Venetoclax 333.3 nM
  viability at 0.3333 µM: 5%
MOLM-14 cells; Venetoclax 1000 nM
  viability at 1 µM: 2%
MOLM-14 cells; Venetoclax 3000 nM
  viability at 3 µM: 0%
MOLM-14 xenograft model
  tumor growth inhibition: 15%
